Measurements: patent US20230136562A1, “SPIROUREA DERIVATIVES” (Idorsia Pharmaceuticals Ltd, priority 2020, published 2023)
Read-outs that look alike come from different tables or passages of the source.

Assays:
[1] = system: Wistar rats; experiment: Amygdala-kindling rat model; format: in vivo; settings: 1 mg/kg po, time of challenge 30 min, HCl salt, formulation 90% MC 0.5% + 10% PEG400
Experimental: Formulation and Administration.
Compounds were formulated in a 10% polyethylene glycol 400 (PEG 400)/90% aqueous solution of 0.5% methylcellulose (MC 0.5%). Firstly drugs are dissolved in PEG 400 and then suspended in MC 0.5% for oral gavage at X mg/5 mL/kg (X see table).
Amygdala-Kindling Rat Model:
1. Procedure: Adult male Wistar rats (Harlan Laboratories, Netherlands, or Charles Rivers, Germany; body weight 300-350 g) were stereotaxically implanted with twisted bipolar plastic-coated stainless steel electrode (MS333-2-BIU 10 mm, Plastics One) into the right basolateral amygdala under isoflurane anesthesia. To place the electrode, trepanations were made in the skull and the electrode was lowered into the right basolateral amygdala (from bregma: anteriorposterior (AP): −2.5 mm, medio-lateral (ML): −3.5 mm, dorso-ventral (DV): −8.6 mm; α=10°) and secured to the skull with screws and dental acrylate. After one week of recovery, they were handled daily and habituated over one week to the kindling set-up. Kindling procedure: For a kindling session each rat was placed individually into a smooth acrylic plastic, round-bottomed bowl (Ø 36 cm, height 36 cm, BASi movement-responsive caging system) and its intracranial implanted electrode was connected to the stimulator (STG4008, Multichannel Systems GmbH) and the recording devices (PowerLab 8/35, ADInstruments Ltd) via a cable (335-340/3 (C), Plastics One). For the kindling procedure, each rat was exposed once daily to an electrical stimulation and the behavioral symptoms of the evoked seizure were observed and classified according to the modified Racine scale (stage 0, arrest, wet dog shakes, normal behaviour; stage 1, facial twitches: nose, lips, eyes; stage 2, chewing, head nodding; stage 3, forelimb clonus; stage 4, rearing, falling on forelimbs; stage 5, rearing, falling on side or back, rolling). The electrical stimulus consists of a 1s-train of 50 Hz square-wave biphasic pulses of 1-ms duration at an intensity of 400 μA (suprathreshold intensity). […] Data Scoring and analysis. The duration of electroencephalographic seizures (afterdischarge, AD) was recorded using LabChart7 Pro software (ADlnstruments Ltd). Simultaneously, videos were recorded to evaluate seizure stage (SS).
2. Compound testing: Acute drug effects were evaluated in groups of 6-8 fully kindled rats in a randomized cross-over design with 48 h between drug and vehicle applications. Following oral administration of drug or vehicle, drug testing included determination of the afterdischarge threshold (the minimal stimulation intensity necessary to evoke an afterdischarge (electroencephalographically measured neuronal hyper-synchronous activity with an amplitude 2-times higher than baseline amplitude and a frequency of ≥1 Hz) of at least 3 sec duration) and monitoring electroencephalographic and behavioral correlates of the evoked seizure at ADT (afterdischarge threshold), including AD duration and SS, by a experimenter blind to treatment assignment.

[2] = system: primary neuronal cultures from embryonic rat brains; experiment: Rat oscillation assay (FLIPR, neuronal calcium oscillations); format: cell-based; settings: Rattus norvegicus
Procedure, shortened: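 Cortical neurons from E18 Wistar rat embryos, cultured 8–10 days at high density, loaded with 1 μM Fluo-8 AM; calcium oscillations recorded by FLIPR once per second in Mg-free HBSS with 2 mM CaCl2, 20 mM HEPES, pH 7.4. Two acquisitions ("Acute", 500 sec, compound added at 250 sec; "20 min"), ± Kv7 blocker XE-991.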

## C[C@H](NC(=O)NC1CC2(CCC2)C1)c1ccnc(OC(F)F)c1 (single isomer, unassigned) [Example 168]
[1]
  AD duration [% vs veh]: −84 % vs veh
  Seizure stage [% vs veh]: −58 % vs veh
[2]; 20 min, AUC of fluorescence measured 20 min after compound addition, read-out: FLIPR: IC50 [nM] 20 min
  IC50: 3 nM
[2]; Acute phase, ratio of AUC fluorescence before and after compound addition, read-out: FLIPR: IC50 [nM] acute
  IC50: 3.7 nM
